Measured values taken from patent US5104866A, “Water-soluble antibiotic composition and water-soluble salts of cephem compounds” (Fujisawa Pharmaceutical Company, Ltd., priority 1987, dated 1992).
Counter-ions that a name gives are not always drawn.

Tests used:
[1] = Dissolution test: velocity of dissolution of test samples after addition of distilled water at ambient temperature; assay type: physicochemical; settings: reference sample without carbonic acid salt
Experimental: As a comparison, the following reference samples were also tested.
The velosity of dissolution of the test samples were observed after addition of distilled water into said test samples at ambient temperature,respectively.

[2] = tested on: P. aeruginosa 26; experiment: In vitro antibacterial activity, two-fold agar-plate dilution method (MIC); assay type: cell-based; settings: Pseudomonas aeruginosa, HI-agar, 10^6 viable cells per ml, 37° C., 20 hours, read-out: minimal inhibitory concentration (MIC)
Experimental: Sodium 7-[2-allyloxyimino-2-(5-carboxylatoamino-1,2,4-thiadiazol-3-yl)acetamido]- 3-(1-pyridinio)methyl-3-cephem-4-carboxylate (syn isomer).
In vitro antibacterial activity was determined by the two-fold agar-plate dilution method as described below.

Compound | Maximum concentration of this sample dissolved in water [1] | MIC [2]
C=CCO/N=C(\C(=O)NC1C(=O)N2C(C(=O)[O-])=C(C[n+]3ccccc3)CSC12)c1nsc(N)n1 (stereo not drawn) [Reference Sample (1), 7-[2-allyloxyimino-2-(5-amino-1,2,4-thiadiazol-3-yl)acetamido]-3-(1-pyridinio)methyl-3-cephem-4-carboxylate (syn isomer)] | 4.07 % (w/v) | –
C=CCO/N=C(\C(=O)NC1C(=O)N2C(C(=O)[O-])=C(C[n+]3ccccc3)CSC12)c1nsc(N)n1 (stereo not drawn) [Reference Sample (2), 7-[2-allyloxyimino-2-(5-amino-1,2,4-thiadiazol-3-yl)acetamido]-3-(1-pyridinio)methyl-3-cephem-4-carboxylate hydrochloride (syn isomer)] | 8.28 % (w/v) | –
CO/N=C(\C(=O)NC1C(=O)N2C(C(=O)[O-])=C(C[n+]3ccccc3)CSC12)c1nsc(N)n1 (stereo not drawn) [Reference Sample (3), 7-[2-(5-amino-1,2,4-thiadiazol-3-yl)-2-methoxyiminoacetamido]-3-(1-pyridinio)methyl-3-cephem-4-carboxylate (syn isomer)] | 2 % (w/v) | –
CO/N=C(\C(=O)NC1C(=O)N2C(C(=O)[O-])=C(C[n+]3ccccc3)CSC12)c1nsc(N)n1 (stereo not drawn) [Reference Sample (4), 7-[2-(5-amino-1,2,4-thiadiazol-3-yl)-2-methoxyiminoacetamido]-3-(1-pyridinio)methyl-3-cephem-4-carboxylate sulfate (syn isomer)] | 10 % (w/v) | –
C=CCO/N=C(\C(=O)NC1C(=O)N2C(C(=O)[O-])=C(C[n+]3ccccc3)CSC12)c1nsc(NC(=O)O)n1 (stereo not drawn) [Test salt, Sodium 7-[2-allyloxyimino-2-(5-carboxylatoamino-1,2,4-thiadiazol-3-yl)acetamido]-3-(1-pyridinio)methyl-3-cephem-4-carboxylate (syn isomer)] | – | 0.39 mg/L
